Laboratory results from BindingDB's records for patent US10913753 (Valo Early Discovery, 2021).

Experiments:
[1] = biological target: T1, Ubiquitin carboxyl-terminal hydrolase 28 (Homo sapiens, UniProt Q96RU2); assay: Biochemical Assay
T1 sequence (Q96RU2 whole entry): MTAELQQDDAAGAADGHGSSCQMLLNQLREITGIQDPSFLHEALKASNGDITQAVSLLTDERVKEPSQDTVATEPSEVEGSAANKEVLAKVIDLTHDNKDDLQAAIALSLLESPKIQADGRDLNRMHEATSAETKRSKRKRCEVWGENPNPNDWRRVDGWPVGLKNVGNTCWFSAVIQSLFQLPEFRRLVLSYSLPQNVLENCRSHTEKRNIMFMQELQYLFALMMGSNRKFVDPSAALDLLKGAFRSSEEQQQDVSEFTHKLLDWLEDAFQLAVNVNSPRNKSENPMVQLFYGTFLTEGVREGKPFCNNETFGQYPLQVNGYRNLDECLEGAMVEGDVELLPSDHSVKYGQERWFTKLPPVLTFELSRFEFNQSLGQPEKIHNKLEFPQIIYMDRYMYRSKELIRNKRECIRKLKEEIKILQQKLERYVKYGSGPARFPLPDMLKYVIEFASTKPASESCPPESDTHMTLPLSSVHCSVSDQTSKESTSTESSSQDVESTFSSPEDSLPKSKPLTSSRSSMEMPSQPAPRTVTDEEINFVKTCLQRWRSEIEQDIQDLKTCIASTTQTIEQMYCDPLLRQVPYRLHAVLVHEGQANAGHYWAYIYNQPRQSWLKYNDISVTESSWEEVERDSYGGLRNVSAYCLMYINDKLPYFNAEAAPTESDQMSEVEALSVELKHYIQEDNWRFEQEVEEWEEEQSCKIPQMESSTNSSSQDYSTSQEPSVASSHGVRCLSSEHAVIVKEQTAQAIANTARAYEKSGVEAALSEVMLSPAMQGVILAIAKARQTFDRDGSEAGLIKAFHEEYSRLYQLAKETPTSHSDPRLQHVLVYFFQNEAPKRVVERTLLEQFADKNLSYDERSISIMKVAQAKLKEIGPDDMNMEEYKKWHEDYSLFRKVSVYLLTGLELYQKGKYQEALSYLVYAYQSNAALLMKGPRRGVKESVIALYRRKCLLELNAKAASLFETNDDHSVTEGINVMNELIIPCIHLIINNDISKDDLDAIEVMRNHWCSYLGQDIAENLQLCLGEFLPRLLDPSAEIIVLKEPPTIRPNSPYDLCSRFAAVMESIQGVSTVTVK
Protocol: USP28: The assay was performed in a final volume of 20 uL in assay buffer containing 20 mM Tris-HCl (pH 8.0, (1M Tris-HCl, pH 8.0 solution; Corning 46-031-CM)), 2 mM CaCl2 (1M Calcium Chloride solution; Sigma #21114) 2 mM BME (2-Mercaptoethanol; Sigma 63689-25ML -F), 0.01% Prionex (0.22 uM filtered, Sigma #G-0411), and 0.01% Triton X-100. Stock compound solutions were stored at […] as 10 mM in DMSO. Up to 1 month prior to the assay, 2 mM test compounds were pre-dispensed into assay plates (Black, low volume; Corning #3820) and […] Prestamped assay plates were allowed to come to room temperature on the day of the assay. For the screen, 100 nL of 2 mM was pre-dispensed for a final screening concentration of 10 uM (DMSO(fc)=0.5%). […] Plates were incubated stacked for 90 minutes at room temperature before fluorescence was read on the Envision (Excitation at 485 nm and Emission at 535 nm; Perkin Elmer) or on the PheraSTAR (Excitation at 485 nm and Emission at 535 nm; BMG Labtech).

[2] = biological target: T2, Ubiquitin carboxyl-terminal hydrolase 25 (Homo sapiens, UniProt Q9UHP3); assay: Biochemical Assay
T2 sequence (Q9UHP3 whole entry): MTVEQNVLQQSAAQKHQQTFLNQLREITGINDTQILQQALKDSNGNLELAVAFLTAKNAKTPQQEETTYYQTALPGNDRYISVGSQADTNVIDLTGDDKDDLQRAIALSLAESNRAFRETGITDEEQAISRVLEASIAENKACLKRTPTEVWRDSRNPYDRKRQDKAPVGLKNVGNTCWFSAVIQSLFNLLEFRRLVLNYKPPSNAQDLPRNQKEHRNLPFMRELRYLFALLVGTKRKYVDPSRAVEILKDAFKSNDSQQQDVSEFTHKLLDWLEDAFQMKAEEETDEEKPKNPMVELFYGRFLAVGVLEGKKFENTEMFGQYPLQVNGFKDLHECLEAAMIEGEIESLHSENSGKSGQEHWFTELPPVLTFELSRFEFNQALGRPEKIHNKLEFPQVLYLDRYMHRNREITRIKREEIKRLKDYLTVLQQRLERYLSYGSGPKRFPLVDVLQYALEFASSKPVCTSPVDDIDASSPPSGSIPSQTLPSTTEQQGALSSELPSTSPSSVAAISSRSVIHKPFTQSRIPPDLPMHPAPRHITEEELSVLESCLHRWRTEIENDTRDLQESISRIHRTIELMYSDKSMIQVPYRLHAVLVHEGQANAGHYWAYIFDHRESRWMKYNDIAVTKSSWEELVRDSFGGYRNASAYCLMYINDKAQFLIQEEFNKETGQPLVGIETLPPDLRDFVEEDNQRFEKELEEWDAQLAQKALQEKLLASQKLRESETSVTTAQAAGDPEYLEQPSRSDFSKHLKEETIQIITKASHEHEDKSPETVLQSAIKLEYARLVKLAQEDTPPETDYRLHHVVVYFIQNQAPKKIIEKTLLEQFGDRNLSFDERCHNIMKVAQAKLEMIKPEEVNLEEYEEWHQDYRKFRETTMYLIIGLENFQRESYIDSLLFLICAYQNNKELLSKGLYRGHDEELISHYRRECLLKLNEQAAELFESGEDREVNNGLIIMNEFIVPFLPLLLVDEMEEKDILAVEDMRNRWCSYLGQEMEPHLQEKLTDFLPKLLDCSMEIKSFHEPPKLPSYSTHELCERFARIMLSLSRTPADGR
Protocol: USP25: The assay was performed in a final volume of 9 uL in assay buffer containing 20 mM Tris-HCl (pH 8.0, (1M Tris-HC1, pH 8.0 solution; Corning 46-031-CM)), 3 mM BME (2-Mercaptoethanol; Sigma 63689-25ML-F), 0.03% BGG (0.22 uM filtered, Sigma, G7516-25G), and 0.01% Triton X-100 (Sigma, T9284-10L). Nanoliter quantities of 10-point, 3-fold serial dilution in DMSO was pre-dispensed into 1536 assay plates (Corning, #3724BC) for a final test concentration of 25 uM to 1.3 nM, top to lowest dose, respectively. Enzyme USP25, construct USP25-His6, (Boston Biochem E-546). Concentration and incubation times were optimized for the maximal signal-to-background while maintaining initial velocity conditions at a fixed substrate concentration. The final concentration of the enzyme in the assay was 75 pM. Final substrate (Ub -Rh110; Ubiquitin-Rhodamine 110, R&D Systems #U-555) concentration was 25 nM with [Ub -Rh110] Km. 3 uL of 2x enzyme was added to assay plates (pre-stamped with compound) preincubated with USP25 for 30 minutes and then 3 uL of 2x Ub-Rh110 was added to assay plates. Plates were incubated for 45 minutes at room temperature before addition of 3 uL of stop solution (final concentration of 10 mM citric acid (Sigma, 251275-500G)). Fluorescence was read on the Envision (Excitation at 485 nm and Emission at 535 nm; Perkin Elmer) or on the PheraSTAR (Excitation at 485 nm and Emission at 535 nm; BMG Labtech).

In the case of `Nc1c(C(=O)NCCc2ccc([C@H]3CCNC3)cc2)sc2ncccc12` [US10913753, Compound I-180], the IC50 [1] is reported as < 200 nM and the IC50 [2] is reported as “in the range around 1100 nM”.

For `Nc1c(C(=O)NCCc2ccc(C3CCNC3)cc2)sc2ncccc12` (stereo unspecified) [US10913753, Compound I-181], the IC50 [1] was < 200 nM and the IC50 [2] was “in the range around 1100 nM”.

For `CN[C@H]1CN(c2nc(F)c(CCNC(=O)c3sc4nc(C)ccc4c3N)cc2F)CC1C` (stereo partly specified) [US10913753, Compound I-214], the IC50 [1] was “in the range around 1100 nM” and the IC50 [2] was “in the range around 6000 nM”.
